Some test systems named below: A549; CAKI-1; CCRF-CEM; DU-145; HCT-15; M14; MDA-MB-231; MDA-N; NCI/ADR-RES; OVCAR-5; RPMI-8226; SK-MEL-28; SK-OV-3; SR; SW-620; UACC-257; UACC-62; NCI-H226; SN12C; SNB-75.
Assay in all cases: growth of human tumour cells (NCI), 48 h

Molecules are shown by their SMILES.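 Following 48 hours of exposure in 96-well plates, responses at five concentrations were used to interpolate endpoints linearly. GI50 = concentration required for 50% inhibition of growth.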 Activity calls are given as the source filed them. Rule as the data show it: active = GI50 up to about 1.1 µM and inactive = higher.

Consider `CC(NC(CC12CC3CC(CC(C3)C1)C2)C(N)=O)c1ccccc1` (stereo not drawn), for which the GI50 was 39.8 µM (inactive) in the assay with A549; 23.3 µM (inactive) with CAKI-1; 19.1 µM (inactive) in the assay with CCRF-CEM; 24.7 µM (inactive) in the assay with DU-145; 31.7 µM in the assay with HCT-15; 21.1 µM (inactive) in the assay with M14. Further, the GI50 in the assay with MDA-MB-231 is 29.3 µM (inactive); with MDA-N it was 25.6 µM (inactive); with NCI/ADR-RES, 17.8 µM (inactive); in the assay on OVCAR-5, 17.5 µM (inactive); with RPMI-8226 it was 15.7 µM (inactive); with SK-MEL-28 it was 20 µM (inactive). Also, the GI50 with SK-OV-3 was 5.27 µM (inactive); in the assay with SR, 17.4 µM (inactive); in the assay on SW-620 it was 31.1 µM (inactive); with UACC-257, 15.2 µM (inactive); in the assay on UACC-62 it was 20.3 µM (inactive).

Regarding `COC(=O)C1(NC(=O)C(Cc2ccccc2)N(C(=O)OC(C)(C)C)C(=O)OC(C)(C)C)CCCC1` (stereo not drawn), the GI50 in the assay on A549 was 37.9 µM (inactive); in the assay with CCRF-CEM it was 22.9 µM (inactive); in the assay with DU-145, > 100 µM (inactive); with HCT-15, 66.4 µM; with M14, > 100 µM (inactive); in the assay on MDA-MB-231, 80.9 µM (inactive). For the same compound, the GI50 in the assay with MDA-N is > 100 µM (inactive); in the assay with NCI-H226, > 100 µM (inactive); in the assay on NCI/ADR-RES, 22.3 µM (inactive); in the assay with OVCAR-5, 58.6 µM (inactive); with RPMI-8226 it was 20 µM (inactive); with SK-MEL-28, > 100 µM (inactive). The GI50 in the assay with SK-OV-3 is > 100 µM (inactive); in the assay on SN12C it was > 100 µM (inactive); with SNB-75, > 100 µM (inactive); with SR, > 10 µM (inactive); in the assay with SW-620 it was > 100 µM (inactive); with UACC-62 it was 20.1 µM (inactive).

In the case of `C/C(=N/NC(=S)Nc1ccccc1C)c1ccccn1`, the GI50 was 0.0855 µM (active) in the assay on A549; 0.0206 µM (active) in the assay with CCRF-CEM; 1.63 µM (inactive) with DU-145; 0.0228 µM in the assay with HCT-15; < 0.0258 µM (active) with M14; < 0.0216 µM (active) in the assay with MDA-MB-231. In addition, the GI50 is 0.807 µM (active) in the assay with MDA-N; 0.075 µM (active) in the assay with NCI-H226; 0.0322 µM (active) in the assay on NCI/ADR-RES; 0.0843 µM (active) in the assay on OVCAR-5; < 0.0188 µM (active) with RPMI-8226; 1.08 µM (active) in the assay with SK-MEL-28. For the same compound, the GI50 in the assay on SK-OV-3 is 0.052 µM (active); in the assay on SN12C, 0.269 µM (active); in the assay on SNB-75 it was 0.583 µM (active); in the assay with SR, 0.0229 µM (active); in the assay on SW-620, < 0.0177 µM (active); in the assay with UACC-257 it was < 0.0208 µM (active). The GI50 in the assay with UACC-62 is 0.232 µM (active).

In the case of `c1ccc(C(=NCCC2CNc3ccccc32)c2ccccc2)cc1` (stereo not drawn), the GI50 in the assay with A549 was > 100 µM (inactive); in the assay with CAKI-1, > 100 µM (inactive); in the assay with CCRF-CEM, > 100 µM (inactive); in the assay with DU-145, > 100 µM (inactive); in the assay with HCT-15 it was more than 100 µM; in the assay on M14, > 100 µM (inactive). The GI50 in the assay with MDA-MB-231, in the assay with MDA-N, with NCI/ADR-RES, in the assay on OVCAR-5, in the assay on RPMI-8226 and in the assay with SK-MEL-28 was > 100 µM (inactive) each time. In addition, the GI50 in the assay on SK-OV-3, with SR, in the assay with SW-620, in the assay with UACC-257 and in the assay with UACC-62 was > 100 µM (inactive) throughout.

As for `COc1ccc(C2(C3c4cc(OC)c(OC)cc4CCN3C)SCCCS2)cc1O` (stereo not drawn), the GI50 is > 100 µM (inactive) in the assay on A549; > 100 µM (inactive) in the assay with CAKI-1; > 100 µM (inactive) in the assay with CCRF-CEM; > 100 µM (inactive) in the assay on DU-145; more than 100 µM in the assay with HCT-15; > 100 µM (inactive) with M14. The GI50 in the assay on MDA-MB-231 was > 100 µM (inactive); with MDA-N, > 100 µM (inactive); in the assay on NCI/ADR-RES it was 94 µM (inactive); with OVCAR-5, > 100 µM (inactive); in the assay with RPMI-8226, > 100 µM (inactive); in the assay on SK-MEL-28 it was 68.2 µM (inactive). The GI50 in the assay on SK-OV-3 is 72.9 µM (inactive); in the assay on SN12C it was > 100 µM (inactive); with SR it was 68.1 µM (inactive); in the assay on SW-620, > 100 µM (inactive); with UACC-257 it was > 100 µM (inactive); with UACC-62, > 100 µM (inactive).

Regarding `C/C(Cc1ccc2c(c1)OCO2)=N\N=c1\sc2ccccc2n1C`, the GI50 in the assay on A549 was > 100 µM (inactive); in the assay with CAKI-1, > 100 µM (inactive); in the assay on CCRF-CEM it was 92.5 µM (inactive); with DU-145, > 100 µM (inactive); with HCT-15, 68.4 µM; in the assay with M14 it was > 100 µM (inactive). The GI50 in the assay on MDA-MB-231 was > 100 µM (inactive); in the assay with MDA-N, 83.2 µM (inactive); in the assay with NCI-H226, > 100 µM (inactive); in the assay on NCI/ADR-RES, > 100 µM (inactive); in the assay with OVCAR-5, > 100 µM (inactive); with RPMI-8226 it was 65.9 µM (inactive). Also, the GI50 in the assay on SK-MEL-28, in the assay on SN12C, in the assay on SW-620, in the assay on UACC-257 and in the assay on UACC-62 was > 100 µM (inactive) each time.

For the compound `O=C1C2=Cc3ccccc3OC2(O)Oc2ccc(O)cc21` (stereo not drawn), the GI50 in the assay with A549 is 53.6 µM (inactive); in the assay with CAKI-1, 48.4 µM (inactive); with CCRF-CEM, 7.83 µM (inactive); in the assay with DU-145 it was > 100 µM (inactive); in the assay on HCT-15 it was 38.6 µM; in the assay on M14, > 100 µM (inactive). Besides, the GI50 in the assay on MDA-MB-231 is > 100 µM (inactive); in the assay with MDA-N, > 100 µM (inactive); with NCI-H226 it was > 100 µM (inactive); with NCI/ADR-RES, 49.9 µM (inactive); with OVCAR-5, > 100 µM (inactive); in the assay on RPMI-8226, 23.1 µM (inactive). In addition, the GI50 with SK-MEL-28 is > 100 µM (inactive); with SK-OV-3, > 100 µM (inactive); in the assay on SN12C, > 100 µM (inactive); with SNB-75, 35.9 µM (inactive); in the assay with SW-620 it was > 100 µM (inactive); in the assay on UACC-257, > 100 µM (inactive). For the same compound, the GI50 with UACC-62 was 61.8 µM (inactive).

As to `CCOC(=O)c1c2cccccc-2nc1Nc1cccc2c(C)ccnc12`, the GI50 is > 10 µM (inactive) in the assay on A549; > 10 µM (inactive) in the assay on CAKI-1; 4.88 µM (inactive) with CCRF-CEM; > 10 µM (inactive) in the assay on DU-145; 6.31 µM with HCT-15; > 10 µM (inactive) in the assay with M14. Further, the GI50 was > 10 µM (inactive) in the assay with MDA-MB-231; > 10 µM (inactive) with MDA-N; > 10 µM (inactive) with NCI-H226; > 10 µM (inactive) in the assay with NCI/ADR-RES; > 10 µM (inactive) with OVCAR-5; 3.03 µM (inactive) with RPMI-8226. The GI50 was > 10 µM (inactive) with SK-MEL-28; > 10 µM (inactive) in the assay on SK-OV-3; > 10 µM (inactive) in the assay with SN12C; 9.95 µM (inactive) in the assay with SR; > 10 µM (inactive) in the assay with SW-620; 9.2 µM (inactive) in the assay with UACC-257. In addition, the GI50 in the assay with UACC-62 was 9.77 µM (inactive).

`O=C(NCCCl)Nc1cccnc1`: the GI50 with A549 was 31.6 µM (inactive); in the assay with CAKI-1 it was 21.5 µM (inactive); with CCRF-CEM, 33.7 µM (inactive); in the assay with DU-145, 15.4 µM (inactive); in the assay with HCT-15, 22.3 µM; in the assay with M14 it was 17.6 µM (inactive). The GI50 in the assay on MDA-MB-231 was 17.4 µM (inactive); with MDA-N, 12.8 µM (inactive); in the assay on NCI-H226, 15.7 µM (inactive); with NCI/ADR-RES, 21 µM (inactive); in the assay with RPMI-8226, 2.84 µM (inactive); in the assay on SK-MEL-28, 21.2 µM (inactive). Besides, the GI50 in the assay on SK-OV-3 was 20.6 µM (inactive); in the assay on SN12C, 21.5 µM (inactive); with SNB-75 it was 29.6 µM (inactive); in the assay with SW-620, 50.7 µM (inactive); in the assay on UACC-257, 8 µM (inactive); with UACC-62 it was 15.3 µM (inactive).

With `Cc1cc(Nc2ccc(S(=O)(=O)O)c3cc(S(=O)(=O)O)cc(S(=O)(=O)O)c23)c2ccccc2n1`, the GI50 in the assay on A549 is > 100 µM (inactive); in the assay on CAKI-1, > 100 µM (inactive); in the assay on DU-145 it was > 100 µM (inactive); in the assay with HCT-15, more than 100 µM; with M14 it was > 100 µM (inactive); in the assay on MDA-MB-231 it was > 100 µM (inactive). Also, the GI50 with MDA-N, in the assay on NCI-H226, in the assay on NCI/ADR-RES, in the assay on OVCAR-5, with RPMI-8226 and in the assay with SK-MEL-28 was > 100 µM (inactive) throughout. For the same compound, the GI50 with SK-OV-3, in the assay on SN12C, with SNB-75, in the assay with SW-620, in the assay on UACC-257 and in the assay with UACC-62 was > 100 µM (inactive) throughout.

In the case of `O=C1CC2[C@@H](N3CCCC3)CCC(N1Cc1ccccc1)C2(O)O` (stereo partly drawn), the GI50 with A549 was > 100 µM (inactive); in the assay with CAKI-1, > 100 µM (inactive); in the assay on CCRF-CEM it was > 100 µM (inactive); with DU-145 it was > 100 µM (inactive); in the assay with HCT-15, more than 100 µM; in the assay with M14 it was > 100 µM (inactive). Besides, the GI50 in the assay on MDA-MB-231, with MDA-N, in the assay on NCI-H226, in the assay on NCI/ADR-RES, in the assay with OVCAR-5 and in the assay on SK-MEL-28 was > 100 µM (inactive) each time. Also, the GI50 in the assay on SK-OV-3, in the assay on SN12C, in the assay with SR, in the assay with SW-620, in the assay with UACC-257 and in the assay with UACC-62 was > 100 µM (inactive) in each case.
